Assay results as given in ChEMBL document CHEMBL1649499, “Nine-hospital study comparing broth microdilution and Etest method results for vancomycin and daptomycin against methicillin-resistant Staphylococcus aureus” (2009).
In brackets after ≈: the same amount, converted by molar mass.

What was measured:
Staphylococcus aureus [1] = test: Antibacterial activity against methicillin-resistant Staphylococcus aureus by Etest method; assay type: functional
Staphylococcus aureus [2] = test: Antibacterial activity against methicillin-resistant Staphylococcus aureus by broth microdilution method; assay type: functional

| SMILES | MIC (Staphylococcus aureus [1]) [µg/mL] | MIC (Staphylococcus aureus [2]) [µg/mL] |
| --- | --- | --- |
| CCCCCCCCCC(=O)N[C@@H](Cc1c[nH]c2ccccc12)C(=O)N[C@H](CC(N)=O)C(=O)N[C@@H](CC(=O)O)C(=O)N[C@@H]1C(=O)NCC(=O)N[C@@H](CCCN)C(=O)N[C@@H](CC(=O)O)C(=O)N[C@H](C)C(=O)N[C@@H](CC(=O)O)C(=O)NCC(=O)N[C@H](CO)C(=O)N[C@@H]([C@H](C)CC(=O)O)C(=O)N[C@@H](CC(=O)c2ccccc2N)C(=O)O[C@@H]1C | 0.38 (≈ 0.234 µM) | ≤ 0.25 |
| CN[C@H](CC(C)C)C(=O)N[C@H]1C(=O)N[C@@H](CC(N)=O)C(=O)N[C@H]2C(=O)N[C@H]3C(=O)N[C@H](C(=O)N[C@H](C(=O)O)c4cc(O)cc(O)c4-c4cc3ccc4O)[C@H](O)c3ccc(c(Cl)c3)Oc3cc2cc(c3O[C@@H]2O[C@H](CO)[C@@H](O)[C@H](O)[C@H]2O[C@H]2C[C@](C)(N)[C@H](O)[C@H](C)O2)Oc2ccc(cc2Cl)[C@H]1O [VANCOMYCIN] | – | > 1 |
